From PubChem BioAssay (NCI)
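How tested: cells in 96-well plates exposed to compound for 48 hours at five concentrations. TGI denotes the concentration required for complete inhibition of growth.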

Tests used:
Assay in all cases: NCI-60 cell line screen, 48 h
HOP-92 NSCLC = tested on: HOP-92 NSCLC
OVCAR-4 ovarian = tested on: OVCAR-4 ovarian
DMS 114 small cell lung = tested on: DMS 114 small cell lung
U251 CNS = tested on: U251 CNS
NCI-H226 lung = tested on: NCI-H226 lung
OVCAR-5 ovarian = tested on: OVCAR-5 ovarian
UO-31 renal = tested on: UO-31 renal
ACHN renal = tested on: ACHN renal
EKVX NSCLC = tested on: EKVX NSCLC
NCI-H23 lung = tested on: NCI-H23 lung
HCT-15 colon = tested on: HCT-15 colon
SF-295 CNS = tested on: SF-295 CNS
HCC-2998 colon = tested on: HCC-2998 colon
HOP-18 NSCLC = tested on: HOP-18 NSCLC
M14 melanoma = tested on: M14 melanoma
K-562 leukemia = tested on: K-562 leukemia
NCI-H460 lung = tested on: NCI-H460 lung
RXF 393 renal = tested on: RXF 393 renal
M19-MEL melanoma = tested on: M19-MEL melanoma
XF 498 CNS = tested on: XF 498 CNS
CCRF-CEM leukemia = tested on: CCRF-CEM leukemia
HT29 colon = tested on: HT29 colon
SNB-19 CNS = tested on: SNB-19 CNS
SW-620 colon = tested on: SW-620 colon
HCT-116 colon = tested on: HCT-116 colon
TK-10 renal = tested on: TK-10 renal
HOP-62 NSCLC = tested on: HOP-62 NSCLC
UACC-62 melanoma = tested on: UACC-62 melanoma
SK-MEL-28 melanoma = tested on: SK-MEL-28 melanoma
SNB-78 CNS = tested on: SNB-78 CNS
KM20L2 colon = tested on: KM20L2 colon
KM12 colon = tested on: KM12 colon
SF-268 CNS = tested on: SF-268 CNS
DMS 273 small cell lung = tested on: DMS 273 small cell lung
DLD-1 colon = tested on: DLD-1 colon
A498 renal = tested on: A498 renal
SK-MEL-5 melanoma = tested on: SK-MEL-5 melanoma
SNB-75 CNS = tested on: SNB-75 CNS
IGROV1 ovarian = tested on: IGROV1 ovarian
SN12C renal = tested on: SN12C renal
CAKI-1 renal = tested on: CAKI-1 renal
A549 NSCLC = tested on: A549 NSCLC
NCI-H522 lung = tested on: NCI-H522 lung
UACC-257 melanoma = tested on: UACC-257 melanoma
MALME-3M melanoma = tested on: MALME-3M melanoma
SK-OV-3 ovarian = tested on: SK-OV-3 ovarian
SK-MEL-2 melanoma = tested on: SK-MEL-2 melanoma
OVCAR-8 ovarian = tested on: OVCAR-8 ovarian
SF-539 CNS = tested on: SF-539 CNS
HL-60(TB) leukemia = tested on: HL-60(TB) leukemia
LXFL 529 NSCLC = tested on: LXFL 529 NSCLC
786-0 renal = tested on: 786-0 renal
SR leukemia = tested on: SR leukemia
RXF-631 renal = tested on: RXF-631 renal
COLO 205 colon = tested on: COLO 205 colon
RPMI-8226 leukemia = tested on: RPMI-8226 leukemia
MOLT-4 leukemia = tested on: MOLT-4 leukemia
OVCAR-3 ovarian = tested on: OVCAR-3 ovarian
LOX IMVI melanoma = tested on: LOX IMVI melanoma

Measured: TGI

CN(c1ccccc1)c1nc(=[N+](C)C)ss1
> 100 µM: HOP-92 NSCLC | OVCAR-4 ovarian | DMS 114 small cell lung | U251 CNS | NCI-H226 lung | OVCAR-5 ovarian | UO-31 renal | ACHN renal | EKVX NSCLC | NCI-H23 lung | HCT-15 colon | SF-295 CNS | HCC-2998 colon | HOP-18 NSCLC | M14 melanoma | K-562 leukemia | NCI-H460 lung | RXF 393 renal | M19-MEL melanoma | XF 498 CNS | CCRF-CEM leukemia | HT29 colon | SNB-19 CNS | SW-620 colon | HCT-116 colon | TK-10 renal | HOP-62 NSCLC | UACC-62 melanoma | SK-MEL-28 melanoma | SNB-78 CNS | KM20L2 colon | KM12 colon | SF-268 CNS | DMS 273 small cell lung | DLD-1 colon | A498 renal | SK-MEL-5 melanoma | SNB-75 CNS | IGROV1 ovarian | SN12C renal | CAKI-1 renal | A549 NSCLC | NCI-H522 lung | UACC-257 melanoma | MALME-3M melanoma | SK-OV-3 ovarian | SK-MEL-2 melanoma | OVCAR-8 ovarian | SF-539 CNS | HL-60(TB) leukemia | LXFL 529 NSCLC | 786-0 renal

CCCN(CCC)C1CC(n2cc(C)c(=O)[nH]c2=O)OC1CO (centres undefined)
> 100 µM: HOP-92 NSCLC | OVCAR-4 ovarian | DMS 114 small cell lung | NCI-H226 lung | UO-31 renal | SR leukemia | ACHN renal | NCI-H23 lung | RXF-631 renal | HCC-2998 colon | M14 melanoma | K-562 leukemia | NCI-H460 lung | M19-MEL melanoma | CCRF-CEM leukemia | HCT-116 colon | HOP-62 NSCLC | UACC-62 melanoma | SK-MEL-28 melanoma | SNB-78 CNS | SF-268 CNS | DMS 273 small cell lung | DLD-1 colon | SNB-75 CNS | IGROV1 ovarian | SN12C renal | CAKI-1 renal | COLO 205 colon | NCI-H522 lung | MALME-3M melanoma | RPMI-8226 leukemia | SK-OV-3 ovarian | SK-MEL-2 melanoma | SF-539 CNS | MOLT-4 leukemia | HL-60(TB) leukemia | LXFL 529 NSCLC | 786-0 renal

CCC(=O)N1C(=S)SC[C@H]1C(=O)OC
> 100 µM: HOP-92 NSCLC | OVCAR-4 ovarian | DMS 114 small cell lung | U251 CNS | NCI-H226 lung | OVCAR-5 ovarian | UO-31 renal | SR leukemia | ACHN renal | EKVX NSCLC | NCI-H23 lung | SF-295 CNS | HCC-2998 colon | HOP-18 NSCLC | M14 melanoma | K-562 leukemia | RXF 393 renal | M19-MEL melanoma | XF 498 CNS | CCRF-CEM leukemia | HT29 colon | SNB-19 CNS | SW-620 colon | HCT-116 colon | TK-10 renal | HOP-62 NSCLC | UACC-62 melanoma | SK-MEL-28 melanoma | SNB-78 CNS | KM20L2 colon | KM12 colon | SF-268 CNS | DMS 273 small cell lung | DLD-1 colon | A498 renal | SK-MEL-5 melanoma | SNB-75 CNS | IGROV1 ovarian | OVCAR-3 ovarian | SN12C renal | CAKI-1 renal | A549 NSCLC | COLO 205 colon | NCI-H522 lung | UACC-257 melanoma | MALME-3M melanoma | LOX IMVI melanoma | SK-OV-3 ovarian | OVCAR-8 ovarian | SF-539 CNS | MOLT-4 leukemia | HL-60(TB) leukemia | LXFL 529 NSCLC | 786-0 renal

CCN(CC)CC(C(=O)Nc1c(C)cccc1C)/C(C)=N\NC(=S)NN (centres undefined)
> 100 µM: HOP-92 NSCLC | U251 CNS | NCI-H226 lung | OVCAR-5 ovarian | UO-31 renal | ACHN renal | EKVX NSCLC | NCI-H23 lung | SF-295 CNS | RXF-631 renal | HCC-2998 colon | M14 melanoma | K-562 leukemia | NCI-H460 lung | RXF 393 renal | M19-MEL melanoma | XF 498 CNS | CCRF-CEM leukemia | HT29 colon | SW-620 colon | HCT-116 colon | TK-10 renal | HOP-62 NSCLC | UACC-62 melanoma | SK-MEL-28 melanoma | KM20L2 colon | KM12 colon | SF-268 CNS | DMS 273 small cell lung | DLD-1 colon | A498 renal | SK-MEL-5 melanoma | SNB-75 CNS | IGROV1 ovarian | OVCAR-3 ovarian | A549 NSCLC | COLO 205 colon | NCI-H522 lung | UACC-257 melanoma | MALME-3M melanoma | RPMI-8226 leukemia | LOX IMVI melanoma | SK-OV-3 ovarian | SK-MEL-2 melanoma | OVCAR-8 ovarian | SF-539 CNS | MOLT-4 leukemia | HL-60(TB) leukemia | LXFL 529 NSCLC | 786-0 renal
